Measurements reported in patent publication US20230416329A1, “A PEPTIDE WITH DISULFIDE BONDS AND INHIBITORY ACTIVITY AGAINST SERINE PROTEASES, DERIVED HYBRID PEPTIDES THEREOF, AND USES THEREOF” (INSTITUTE OF MATERIA MEDICA , CHINESE ACADEMY OF MEDICAL …, priority 2020, published 2023).
Bridge positions count the residues as written; N and C are the ends. Peptide text beside a SMILES is read from it.

Columns and labels:
[1] = target: elastase (Sus scrofa, UniProt P00772); experiment: in vitro
Description: FIG. 19. […] At different time point, 25 μL aliquots was taken out, and 10% (v/v) TFA was added to terminate the reaction.
Mix by centrifugation at 8000 rpm for 30 seconds.
Arrange a certain volume of 0.5 μg/μL elastase solution in another sterile EP. Incubate the EP tubes containing peptides and enzymes at 37° C. for 5 min, and then add 4.5 μL of elastase solution to each EP tube containing peptides and mix well. Start timing and remove 25 μL of reaction solution at 1.5, 3.0, 4.5, 6.0, 9.0, 15.0, 30.0, and 60.0 min later, respectively. Add 3.75 μL of 10% TFA to terminate the reaction and mix well by centrifugation at 8000 rpm for 30 seconds.
Referring to the experimental method in Example 5, in vitro stability of salmon Calcitonin analogs with oral administration activity to the enzymatic hydrolysis by trypsin, chymotrypsin and elastase were performed.
Referring to the experimental method in Example 5, in vitro stability of IL-17A inhibitory peptides towards the enzymatic hydrolysis by trypsin, chymotrypsin and elastase were performed.

[2] = target: chymotrypsin (Bos taurus, UniProt P00766); experiment: in vitro
In short: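 RP-HPLC peak area tracked intact peptide after 37 °C digestion with chymotrypsin (0.05 μg/μL solution, 5 min preincubation). Samples were withdrawn at 1.5-60.0 min and stopped with 10% TFA.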

[3] = isolated enzyme chymotrypsin, pH 7.8, Remaining peak area (%)/chymotrypsin

Chain of elastase (P00772 27-266): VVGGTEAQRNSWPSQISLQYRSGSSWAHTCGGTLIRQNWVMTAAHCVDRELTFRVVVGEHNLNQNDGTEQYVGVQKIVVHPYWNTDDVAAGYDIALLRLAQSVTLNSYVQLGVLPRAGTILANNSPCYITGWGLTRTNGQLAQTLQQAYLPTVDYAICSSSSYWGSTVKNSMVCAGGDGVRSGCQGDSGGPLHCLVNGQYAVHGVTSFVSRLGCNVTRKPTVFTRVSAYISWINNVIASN

CC[C@H](C)[C@H](N)C(=O)N[C@@H](Cc1c[nH]cn1)C(=O)N[C@H](C(=O)N[C@H](C(=O)N[C@H](C(=O)N1CCC[C@H]1C(=O)N[C@@H](C)C(=O)N[C@@H](CC(=O)O)C(=O)N[C@@H](CC(C)C)C(=O)N[C@@H](Cc1c[nH]c2ccccc12)C(=O)N[C@@H](CC(=O)O)C(=O)N[C@@H](Cc1c[nH]c2ccccc12)C(=O)N[C@H](C(=O)N[C@@H](CC(N)=O)C(=O)NCC(=O)N[C@H](C(=O)N[C@H]1CSSC[C@@H](C(=O)N[C@@H](CCC(N)=O)C(=O)O)NC(=O)[C@H]([C@@H](C)CC)NC(=O)[C@@H]2CCCN2C(=O)[C@@H]2CCCN2C(=O)[C@H]([C@@H](C)CC)NC(=O)[C@H](CO)NC(=O)[C@H](C)NC(=O)[C@H]([C@@H](C)O)NC1=O)[C@@H](C)CC)[C@@H](C)CC)[C@@H](C)CC)[C@@H](C)O)C(C)C [17A-EC] (H-IHVTIPADLWDWINGICTASIPPICQ-OH; disulfide 17-25) was tested, and the “stability towards elastase hydrolysis (in words)” value [1] was “tolerated to the degradation of corresponding serine proteases”, the “Remaining peak area (%)/chymotrypsin” value ([2]; 0 h) was 100.0 ± 0.0% and the remaining at 0.025 h, 60 μM [2, 3] was 85.5%. For the same molecule, the remaining at 0.05 h, 60 μM [2, 3] was 93.8 ± 2.4%, the remaining at 0.075 h, 60 μM [2, 3] was 89.6% and the remaining at 0.1 h, 60 μM [2, 3] was 91.6 ± 5.3%. The remaining at 0.25 h, 60 μM [2, 3] was 79.8 ± 2.6%, the remaining at 0.5 h, 60 μM [2, 3] was 80.9% and the remaining at 1 h, 60 μM [2, 3] was 68%.
